Measurements from the supplement of paper PMC10307832.

Assays:
Test in all cases: relative viability (nuclei count vs DMSO), 5 days (fraction); higher = more cells survive
SGI-1776 + Bortezomib = compound: CN1CCC(CNc2ccc3ncc(-c4cccc(OC(F)(F)F)c4)n3n2)CC1 [SGI-1776] + CC(C)C[C@H](NC(=O)[C@H](Cc1ccccc1)NC(=O)c1cnccn1)B(O)O [Bortezomib] (partner 0.002 µM)
Procedure, shortened: (§1)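 Five library-drug doses in √10 steps were combined with a fixed anchor-drug dose, or a single drug was given alone, by pin tool to lung cancer cell lines in 1536-well plates the day after seeding. Nuclei were stained and counted after 5 days. Relative viability is the nuclei count in treated wells over that in vehicle wells, taken as the median of duplicate plates.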

[1] = compound: C1COCCN1C2=NC(=NC3=C2OC4=C3C=CC=N4)C5=CC(=CC=C5)NC(=O)C6=CN=C(C=C6)N + CC(=O)c1c(C)c2cnc(Nc3ccc(N4CCNCC4)cn3)nc2n(C2CCCC2)c1=O [Palbociclib] (partner 0.5 µM)
Procedure, shortened: as §1

[2] = compound: C1COCCN1C2=NC(=NC3=C2OC4=C3C=CC=N4)C5=CC(=CC=C5)NC(=O)C6=CN=C(C=C6)N + CCNC(=O)c1noc(-c2cc(C(C)C)c(O)cc2O)c1-c1ccc(CN2CCOCC2)cc1 [Luminespib] (partner 0.01 µM)
Procedure, shortened: as §1

[3] = compound: C1COCCN1C2=NC(=NC3=C2OC4=C3C=CC=N4)C5=CC(=CC=C5)NC(=O)C6=CN=C(C=C6)N + O=C(CCCCCCC(=O)Nc1ccccc1)NO [Vorinostat] (partner 1 µM)
Procedure, shortened: as §1

UMC-11 was tested, and the relative viability (SGI-1776 + Bortezomib; first compound 0.08 µM) was 0.741, the relative viability (SGI-1776 + Bortezomib; first compound 0.8 µM) was 0.809 and the relative viability (SGI-1776 + Bortezomib; first compound 2.53 µM) was 0.647. The relative viability (SGI-1776 + Bortezomib; first compound 8 µM) was 0.688, the relative viability ([1]; first compound 0.02 µM) was 0.347 and the relative viability ([1]; first compound 0.06325 µM) was 0.327. It also gave a relative viability ([1]; first compound 0.2 µM) of 0.344, a relative viability ([1]; first compound 0.6325 µM) of 0.324 and a relative viability ([1]; first compound 2 µM) of 0.265. It also gave a relative viability ([2]; first compound 0.02 µM) of 1.13, a relative viability ([2]; first compound 0.06325 µM) of 1.07 and a relative viability ([2]; first compound 0.2 µM) of 1.02. The relative viability ([2]; first compound 0.6325 µM) was 1.07, the relative viability ([2]; first compound 2 µM) was 0.628 and the relative viability ([3]; first compound 0.02 µM) was 0.415. It also gave a relative viability ([3]; first compound 0.06325 µM) of 0.382, a relative viability ([3]; first compound 0.2 µM) of 0.352 and a relative viability ([3]; first compound 0.6325 µM) of 0.369. The relative viability ([3]; first compound 2 µM) was 0.264.
